Measured values reported in patent US20020025331A1, “Cosmetic compositions containing substituted amine derivatives” (priority 2000, published 2002).
Where two headings read alike, the source gives them in different places.

Test system: human sebocytes
Test: Sebum suppression in cultured human sebocytes (14C-acetate incorporation), alone or with retinol
Type: cell-based
Details: for sebum suppressive activity (in words): agent alone, summary of Tables 1-6
Description: Compounds A through E were tested for their potential to suppress sebum expression, alone or in the presence of a retinoid.
Secondary cultures of human sebocytes obtained from an adult […] were grown in 48-well tissue culture plates (Costar Corp.; Cambridge, MA) or 96-well tissue culture plates (Packard Co.; Meriden, CT) until confluent.
Sebocyte growth medium consisted of Clonetics Keratinocyte Basal Medium (KBM) supplemented with 14 μg/ml bovine pituitary extract, 0.4 μg/ml hydrocortisone, 5 μg/ml insulin, […], 1.2 ×10^-10 M cholera toxin, 100 units/ml penicillin, and 100 μg/ml streptomycin.
All cultures were incubated at 37° C. in the presence of 7.5% CO2. Medium was changed three times per week.
On the day of experimentation, the growth medium was removed and the sebocytes washed three times with sterile Dulbecco's Modified Eagle Medium (DMEM; phenol red free). Fresh DMEM was added to each sample (duplicates, triplicates, or quadruplicates depending on the experiment) with 5 microliter of test agent solubilized in ethanol either alone or in the presence of one or 10 micromolar of retinol. Controls consisted of addition of ethanol alone, retinol alone, or phenol red, which has estrogen-like activity and is included as a positive control.
Each plate was returned to the incubator for 20 hours followed by the addition of 14C-acetate buffer (5 mM final concentration, 56 mCi/mmol specific activity). Sebocytes were returned to the incubator for four hours after which each culture was rinsed three times with phosphate buffered saline to remove unbound label. Radioactive label remaining in the sebocytes was harvested and counted using a Beckman scintillation counter.

Compound: CSc1ccc(NC(C)CC(c2ccccc2)c2c(O)c3ccccc3oc2=O)cc1 (centres unmarked) [Compound A]
- % of Control (Experiment A, 1 μM test agent + 10 μM Retinol): 94.3%
- % of Control (Experiment A, 1 μM test agent alone): 93.8%
- % of Control (Experiment A, 10 μM test agent + 10 μM Retinol): 88.6%
- % of Control (Experiment A, 10 μM test agent alone): 78.1%
- % of Control (Experiment A, 100 μM test agent + 10 μM Retinol): 6.2%
- % of Control (Experiment A, 100 μM test agent alone): 12.5%
- % of Control (Experiment B (n = 3), 1 μM test agent + 1 μM Retinol): 93.3%
- % of Control (Experiment B (n = 3), 1 μM test agent + 10 μM Retinol): 85.4%
- % of Control (Experiment B (n = 3), 1 μM test agent alone): 102.1%
- % of Control (Experiment B (n = 3), 10 μM test agent + 1 μM Retinol): 80.2%
- % of Control (Experiment B (n = 3), 10 μM test agent + 10 μM Retinol): 78.6%
- % of Control (Experiment B (n = 3), 10 μM test agent alone): 89.4%
- % of Control (Experiment B (n = 3), 100 μM test agent + 1 μM Retinol): 19.7%
- % of Control (Experiment B (n = 3), 100 μM test agent + 10 μM Retinol): 26.5%
- % of Control (Experiment B (n = 3), 100 μM test agent alone): 23.5%
- sebum suppressive activity (in words): had sebum suppressive activity

Compound: COc1ccc(OC)c(C(C)NC/C=C(\C)CCC=C(C)C)c1 (centres unmarked) [Compound C]
- % of Control (96 Well Plate (n = 2), 10 μM test agent + 1 μM Retinol): 45.2%
- % of Control (96 Well Plate (n = 2), 10 μM test agent alone): 72.3%
- % of Control (96 Well Plate (n = 2), 50 μM test agent + 1 μM Retinol): 0.3%
- % of Control (96 Well Plate (n = 2), 50 μM test agent alone): 34.2%
- sebum suppressive activity (in words): had sebum suppressive activity
- sebum suppressive activity when combined with retinol / a retinoid (in words) (in the presence of a retinoid (retinol)): improved sebum suppressive activity

Compound: O=S1(=O)OC(c2ccc(O)cc2)(c2ccc(O)cc2)c2ccccc21 [Phenol Red, reference compound]
- activity at 28 µM (Homo sapiens, Experiment B (n = 3), 28 μM alone, read-out: % of Control): 86.4%
- activity at 280 µM (Homo sapiens, Experiment B (n = 3), 280 μM alone, read-out: % of Control): 52.2%
- % Reduction (Table 3 (n = 4), 28 μM alone): 74.7%

Compound: CC1=C(/C=C/C(C)=C/C=C/C(C)=C/C=O)C(C)(C)CCC1 [Retinal, reference compound]
- activity at 1 µM (Homo sapiens, Experiment B (n = 3), 1 μM test agent alone, read-out: % of Control): 104%
- activity at 10 µM (Homo sapiens, Experiment B (n = 3), 10 μM test agent alone, read-out: % of Control): 101%

Compound: CC1=C(/C=C/C(C)=C/C=C/C(C)=C/CO)C(C)(C)CCC1 [Retinol, reference compound]
- activity at 10 µM (Homo sapiens, Experiment A, 10 μM test agent alone, read-out: % of Control): 98.3%
- sebum suppressive activity (in words): inactive
